Test results reported in PubChem BioAssay (NCI).
Where “and” joins values, the source holds several entries; their conditions need not be identical. Equal values may be shown once.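 Dose response: 5 concentrations. Exposure: 48 h. Format: 96-well plates. Endpoint: linear interpolation; highest concentration if not reached. GI50 = concentration required for 50% inhibition of growth. TGI denotes the concentration required for complete inhibition of growth.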

How the values were obtained:
Experiment in all cases: DTP human tumour cell line panel, 48 h
A549 NSCLC = tested on: A549 NSCLC
DU-145 prostate = tested on: DU-145 prostate
HCT-116 colon = tested on: HCT-116 colon
HL-60(TB) leukemia = tested on: HL-60(TB) leukemia
IGROV1 ovarian = tested on: IGROV1 ovarian
LOX IMVI melanoma = tested on: LOX IMVI melanoma
MALME-3M melanoma = tested on: MALME-3M melanoma
MCF7 breast = tested on: MCF7 breast
RXF 393 renal = tested on: RXF 393 renal
SF-268 CNS = tested on: SF-268 CNS

Row | Structure (SMILES) | GI50 (A549 NSCLC) | TGI (A549 NSCLC) | GI50 (DU-145 prostate) | TGI (DU-145 prostate) | GI50 (HCT-116 colon) | TGI (HCT-116 colon) | GI50 (HL-60(TB) leukemia) | TGI (HL-60(TB) leukemia) | GI50 (IGROV1 ovarian) | TGI (IGROV1 ovarian) | GI50 (LOX IMVI melanoma) | TGI (LOX IMVI melanoma) | GI50 (MALME-3M melanoma) | TGI (MALME-3M melanoma) | GI50 (MCF7 breast) | TGI (MCF7 breast) | GI50 (RXF 393 renal) | TGI (RXF 393 renal) | GI50 (SF-268 CNS) | TGI (SF-268 CNS)
1 | Cc1cccc(Cl)c1NC(=O)c1cnc(Nc2cc(N3CCOCC3)cc(S(C)(=O)=O)c2)s1 | 2.16 µM | > 10 µM | 1.2 µM | 5.14 µM | 0.313 µM | > 10 µM | 9.76 µM | > 10 µM | 0.0541 µM | 0.521 µM | 0.0977 µM | 0.938 µM | > 4.16 µM | > 10 µM | > 8.99 µM | > 10 µM | 0.103 µM | 0.994 µM | 0.354 µM | > 10 µM
2 | COc1ccc2c(c1)C(c1cc(OC)c3c(c1)OCO3)C1=C(COC1=O)N2 (configuration not stated) | 0.445 µM | > 100 µM | 0.397 µM | 3.16 µM | 0.417 µM | > 34.8 µM | 0.285 µM | 1.07 µM | 0.687 µM | > 84.5 µM | 0.66 µM | > 100 µM | – | > 100 µM | 0.261 µM | 27.3 µM | – | – | 0.691 µM | > 89.2 µM
3 | COc1ccc(Cn2cc3c(c2-c2cc(OC)c(OC)c(OC)c2)CCc2c(CO)noc2-3)cc1 | 0.439 µM | > 100 µM | 0.361 µM | 16 µM | 0.311 µM | 11.4 µM | 0.231 µM | 0.656 µM | 0.596 µM | 32.1 µM | 0.615 µM | 16.6 µM | 2.46 µM | 29.3 µM | 0.176 µM | 17.8 µM | – | – | 1.58 µM | 26.5 µM
4 | O=C(O)Cc1ccc(N=Nc2c(O)c(C(=O)O)cc3ccccc23)cc1 | – | > 100 µM | – | > 100 µM | – | > 100 µM | – | > 100 µM | – | > 100 µM | – | – | – | > 100 µM | – | > 100 µM | – | > 100 µM | – | > 100 µM
5 | CN1CCN(CCCN2c3ccccc3Sc3ccc(Cl)cc32)CC1 | 6.5 µM and 56.8 µM | 13.7 µM | 6.53 µM and 50.9 µM | 13.5 µM and 94.6 µM | 5.15 µM and 39.9 µM | 12 µM and 54.2 µM | 8.85 µM | 17.9 µM | – | 11.7 µM and 67.3 µM | 4.75 µM | 11.6 µM | 6.01 µM and 39.7 µM | 14.3 µM and 55.9 µM | 5.79 µM and 47.1 µM | 14 µM and 63 µM | – | – | 5.27 µM | 12 µM
6 | C=CCOC(=O)Nc1cccn([C@H](CC(C)C)C(=O)NCCC(C)C)c1=O | 78.5 µM | > 100 µM | > 100 µM | > 100 µM | 49.6 µM | > 100 µM | 58.9 µM | > 100 µM | 60.4 µM | > 100 µM | – | – | > 100 µM | > 100 µM | 99.4 µM | > 100 µM | > 100 µM | > 100 µM | 84.8 µM | > 100 µM
7 | CN(C)c1ccccc1[CH2][Ga]([Cl])[CH2]c1ccccc1N(C)C | 1.44 µM | 2.94 µM | 1.61 µM | 3.2 µM | 0.833 µM | 2.17 µM | 2.7 µM | 5.36 µM | 1.29 µM | 2.73 µM | 1.13 µM | 3.18 µM | 1.75 µM | 3.32 µM | 0.954 µM | 2.67 µM | – | – | 1.77 µM | 3.3 µM
8 | COc1cc2c(c(OC)c1OC)-c1c(c3ccc([N+](=O)[O-])cc3c(=O)n1CCCN)C2=O | 1.32 µM | 3.06 µM | 7.27 µM | 16.6 µM | 0.828 µM | 1.53 µM | – | – | 8.7 µM | 17.1 µM | 1.01 µM | 2.06 µM | 0.952 µM | 1.92 µM | 14.2 µM | > 50 µM | 2.05 µM | 3.86 µM | 13.2 µM | 34.6 µM
9 | CC(C)C(=O)c1c(C(F)(F)F)n([O-])c2ccccc2[n+]1=O | 2.46 µM | 6.79 µM | 1.12 µM | 2.54 µM | 1.25 µM | 3.99 µM | – | – | 1.11 µM | – | 1.85 µM | – | 0.654 µM | 2.03 µM | 0.731 µM | 6.06 µM | 2.35 µM | 13 µM | 1.03 µM | 4.66 µM
10 | C=C1C(=O)C2=CC1CCC(=O)C1(C)CCC(OC(C)=O)C(C)(C)C1CC2O (configuration not stated) | – | 22.4 µM | – | 13.9 µM | – | > 21.2 µM | – | – | – | 14.1 µM | – | > 22.5 µM | – | 18.1 µM | – | 3.84 µM | – | 6.31 µM | – | 38.7 µM
11 | COc1ccc(-c2[nH]nc(N)c2-c2cc(OC)c(OC)c(OC)c2)cc1 | 0.0447 µM | > 100 µM | 0.0354 µM | 1.76 µM | 0.0417 µM | 42.6 µM | 0.0236 µM | 0.0622 µM | 0.0591 µM | 20.4 µM | 0.0756 µM | > 100 µM | 0.0337 µM | > 100 µM | 0.03 µM | > 100 µM | – | – | 0.0756 µM | 33.3 µM
12 | O=c1cccc2n1CC1CNC[C@H]2C1 | – | > 100 µM | – | > 100 µM | – | > 100 µM | – | – | – | > 100 µM | – | > 100 µM | – | > 100 µM | – | > 100 µM | – | > 100 µM | – | > 100 µM
